Reference: PMC6680226, “Peptoid Efficacy against Polymicrobial Biofilms Determined by Using Propidium Monoazide‐Modified Quantitative PCR” (Chembiochem, 2016)
Entries after “also recorded” stand apart in the source; their conditions may differ. Where two headings read alike, the source gives them in different places.

Columns and labels:
trypsin = assay type: in vitro ADME; settings: trypsin 0.5 μg/mL, Tris·HCl 50 mM pH 7.8 with CaCl2 9 mM, 24 h; MALDI-TOF MS read-out
Description: Proteolytic stability studies: Peptoid stability was confirmed by comparing the tryptic digestion of 7 with LL‐37 (Innovagen AB, Lund, Sweden). Stock solutions (5 mg mL^−1) of 7 and LL‐37 were prepared, and samples (7.5 μL) were incubated with trypsin (0.5 μg mL^−1) and incubation buffer (37.5 μL, Tris⋅HCl (50 mM, pH 7.8) containing CaCl2 (9 mM)). After 0 h (for mass spectrometric verification) or 24 h, the reaction mixture was acidified by addition of TFA (10 %, 50 μL) to denature the enzyme and stop enzyme activity. The samples were air‐dried and then reconstituted in acetonitrile/water/TFA (50 μL, 40:59.5:0.5, v/v/v), and an aliquot (1 μL) was placed onto a stainless steel MALDI target. Samples were covered immediately with matrix (1 μL, α‐cyano‐4‐hydroxycinnamic acid (53 mM in acetonitrile/water/TFA, 70:29.98:0.02, v/v/v)). MALDI‐TOF MS was performed on a linear TOF Voyager DE‐mass spectrometer (PerSeptive Biosystems, Farmingham, MA, USA). The samples were analysed in positive detection mode, and internal mass calibration with known standards established the mass accuracy to ±0.1 %. Fifty laser scans were averaged for each sample, and variable laser intensity was used to ensure the most representative mass spectra for the wells.
4. Proteolytic Stability Study […]

HepG2 [1] = assay: alamarBlue cytotoxicity assay, HepG2 cells; settings: for ED50 HepG2: alamarBlue viability, 2-100 μM from DMSO stock, 1 h with compound then 24 h incubation at 37 °C, fluorescence, triplicate on a minimum of two occasions; for Toxicity to HepG2 cells (in words): alamarBlue, up to 100 μM
Description: (§7) Peptoid cytotoxicity studies: All 18 peptoids were tested for cytotoxicity against HepG2 epithelial (Sigma–Aldrich) and HaCaT keratinocyte (ThermoFisher) cell lines, Cytotoxicity analyses were performed in Costar 96‐well plates (Thermo Fisher Scientific) with alamarBlue (Invitrogen/Thermo Fisher Scientific) for cell viability detection as described by the manufacturer. HepG2 and HaCaT cells were grown at 37 °C under CO2 (5 %) in DMEM (high glucose) supplemented with heat‐inactivated foetal bovine sera (FBS, 10 %; Biosera, Uckfield, UK) and penicillin/streptomycin (1 %). Cells were counted in a Neubauer Improved Haemocytometer. HepG2 or HaCaT cells were seeded 24 h prior to treatment in 96‐well plates (2×10^4 cells per well in 100 μL). After 24 h, cells were incubated in triplicate with a dilution series of compound (2–100 μM from 5 mM stock solutions in DMSO) in the medium (50 μL) for 1 h. An aliquot (40 μL) was removed from each well, before the addition of medium (90 μL) followed by incubation for 24 h (37 °C, 5 % CO2). Then, alamarBlue (10 μL) was added to each well before incubation (2 h for Hep G2, 1 h for HaCaT) prior to assessing cell viability in a fluorescent plate reader (Biotek, Winooski, VT; λ ex=560 nm, λ em=600 nm). All data were measured in triplicate on a minimum of two occasions.
(§8) Toxicity was determined using an alamarBlue® cytotoxicity assay.

HaCaT [2] = assay: alamarBlue cytotoxicity assay, HaCaT keratinocytes; settings: for ED50 HaCaT: alamarBlue viability, 2-100 μM from DMSO stock, 1 h with compound then 24 h incubation at 37 °C, fluorescence, triplicate on a minimum of two occasions; for Toxicity to HaCaT cells (in words): alamarBlue, up to 100 μM
Description: as §7, §8

[3] = system: C. albicans (NCTC 3179) biofilm; assay: Crystal violet assay, C. albicans monospecies biofilm; assay type: cell-based, Candida albicans; settings: peptoid 100 μM, 24 h treatment of 4 h biofilm; n=3
Description: (§1) Microorganism strains and growth conditions: C. albicans (NCTC 3179) was subcultured aerobically on Sabouraud agar plates, prepared by using Sabouraud dextrose powder and agar (Oxoid, ThermoFisher) and propagated in yeast peptone dextrose broth. E. coli (ATCC 29522) and S. aureus (NCTC 6571) were grown on blood agar plates (Fanin, Dublin, Ireland) and propagated in brain heart infusion (BHI) broth (Oxoid, ThermoFisher).
(§2) Preparation and treatment of single‐species biofilms: Overnight cultures of C. albicans were washed and resuspended (1.0×10^6 cells per mL) in RPMI‐1640 (Sigma–Aldrich). Overnight cultures of S. aureus or E. coli were washed and resuspended (5.0×10^6 cells per mL) in BHI broth. Samples (100 μL) were added to microtitre plate wells (Thermo Fisher Scientific), and a biofilm was allowed to form for 4 h. Wells were washed with PBS (3×200 μL) to facilitate removal of planktonic cells, and the biofilms were then treated with 1–18 (100 μM in the appropriate medium). Plates were incubated for a further 24 h to allow biofilm maturation. After removal of planktonic cells by washing, biofilms were quantified by the crystal violet assay or by PMA‐qPCR.
(§3) Biofilm quantification by crystal violet assay: Washed biofilms were fixed with methanol (100 μL) for 10 min. Following removal of methanol, the wells were air dried and stained with crystal violet solution (Clin‐Tech, Guildford, UK) for 20 min at room temperature. Excess stain was removed by washing, then the plate was air‐dried and bound crystal violet was re‐solubilised in acetic acid (33 %, 160 μL) prior to reading at 570 nm in a GENios microtitre plate reader (Tecan, Zürich, Switzerland).

[4] = system: S. aureus (NCTC 6571) biofilm; assay: Crystal violet assay, S. aureus monospecies biofilm; assay type: cell-based, Staphylococcus aureus; settings: peptoid 100 μM, 24 h treatment of 4 h biofilm; n=3
Description: as §1, §2, §3

[5] = system: E. coli (ATCC 29522) biofilm; assay: Crystal violet assay, E. coli monospecies biofilm; assay type: cell-based, Escherichia coli; settings: peptoid 100 μM, 24 h treatment of 4 h biofilm; n=3
Description: as §1, §2, §3

[6] = system: C. albicans monospecies biofilm; assay: PMA-qPCR viable cell number, C. albicans monospecies biofilm; assay type: cell-based, Candida albicans; settings: peptoid 100 μM, 24 h; n=3
Description: as §2
(§4) Biofilm quantification by PMA‐modified qPCR: In order to determine the bactericidal and fungicidal activity of peptoids against single‐species and polymicrobial biofilms, the biofilms were detached from the microtitre plate wells prior to quantification. The wells were washed as above, then BHI broth (100 μL) was added and the plate was sealed. Biofilm detachment was achieved by sonication for 5 min in an ultrasonic bath (Dawe, Hayes, Middlesex, UK). The remaining cells were then collected in BHI (80 μL). […]
(§5) Generation of standard curves for PMA‐qPCR: For quantification of C. albicans, S. aureus and E. coli in single‐species and polymicrobial biofilms, DNA standards were prepared by extraction of DNA from planktonic organisms with the microLYSIS‐Plus kit and purification with a DNeasy kit (Qiagen). DNA standards (10^1–10^6 cells) were used in PMA‐qPCR assays to generate standard curves from which the numbers of living organisms within the biofilms could be determined.

[7] = system: E. coli monospecies biofilm; assay: PMA-qPCR viable cell number, E. coli monospecies biofilm; assay type: cell-based, Escherichia coli; settings: peptoid 100 μM, 24 h; n=3
Description: as §2, §4, §5

[8] = system: S. aureus in polymicrobial biofilm with C. albicans; assay: PMA-qPCR, S. aureus within C. albicans-S. aureus polymicrobial biofilm; assay type: cell-based, Staphylococcus aureus; settings: 24 h; for Reduction of cell numbers of S. aureus in mixed-species biofilm: peptoid 10 μM, PMA-qPCR
Description: (§6) Preparation and treatment of polymicrobial biofilms: Overnight cultures of C. albicans were prepared in microtitre plates as above, and allowed to adhere for 4 h to facilitate initial biofilm formation. Planktonic C. albicans cells were removed as above before the addition of S. aureus or E. coli (100 μL, 5.0×10^6 cells per mL). Bacteria were allowed to adhere to the C. albicans biofilms for 4 h to facilitate polymicrobial biofilm formation. Following a washing step, the biofilms were then treated with peptoid (10–100 μM), and incubated for a further 24 h to allow biofilm maturation. Wells were washed as above, and the polymicrobial biofilms were quantified by PMA‐modified qPCR.
Biofilm quantification by PMA‐modified qPCR: In order to determine the bactericidal and fungicidal activity of peptoids against single‐species and polymicrobial biofilms, the biofilms were detached from the microtitre plate wells prior to quantification. The wells were washed as above, then BHI broth (100 μL) was added and the plate was sealed. Biofilm detachment was achieved by sonication for 5 min in an ultrasonic bath (Dawe, Hayes, Middlesex, UK). The remaining cells were then collected in BHI (80 μL). PMA (20 μL, 2 mM in broth;47 Biotium, Fremont, CA) was added to the biofilm suspensions […] and incubated (37 °C, 5 min) prior to photoactivation with a broad‐spectrum LED flood light (60 LED, 0.1 W) placed 15 cm from the tubes (mixed by inversion during the 20 min photoactivation step).48 DNA was extracted by using a microLYSIS‐Plus kit (Microzone, Haywards Heath, UK), and qPCR was performed in a Mx3005P qPCR System (Agilent Technologies).49, 50, 51 See the Tables in the Supporting Information.
as §5

HaCaT [9] = system: HaCaT
Description: as §7, §8

HepG2 [10] = system: HepG2
Description: as §7, §8

[11] = system: C. albicans in polymicrobial biofilm with S. aureus; assay: PMA-qPCR, C. albicans within C. albicans-S. aureus polymicrobial biofilm; assay type: cell-based, Candida albicans; settings: peptoid 100 μM, 24 h; n=3
Description: as §6, §4, §5

Row | Compound | ED50 HepG2 (HepG2 [1]) [µM] | ED50 HaCaT (HaCaT [2]) [µM] | other results
1 | CC[C@H](C)[C@H](NC(=O)[C@H](CCCCN)NC(=O)[C@H](CCC(=O)O)NC(=O)[C@H](CCCCN)NC(=O)[C@H](CO)NC(=O)[C@H](CCCCN)NC(=O)[C@H](CCCNC(=N)N)NC(=O)[C@H](Cc1ccccc1)NC(=O)[C@H](Cc1ccccc1)NC(=O)[C@H](CC(=O)O)NC(=O)CNC(=O)[C@H](CC(C)C)NC(=O)[C@@H](N)CC(C)C)C(=O)NCC(=O)N[C@@H](CCCCN)C(=O)N[C@@H](CCC(=O)O)C(=O)N[C@@H](Cc1ccccc1)C(=O)N[C@@H](CCCCN)C(=O)N[C@@H](CCCNC(=N)N)C(=O)N[C@H](C(=O)N[C@H](C(=O)N[C@@H](CCC(N)=O)C(=O)N[C@@H](CCCNC(=N)N)C(=O)N[C@H](C(=O)N[C@@H](CCCCN)C(=O)N[C@@H](CC(=O)O)C(=O)N[C@@H](Cc1ccccc1)C(=O)N[C@@H](CC(C)C)C(=O)N[C@@H](CCCNC(=N)N)C(=O)N[C@@H](CC(N)=O)C(=O)N[C@@H](CC(C)C)C(=O)N[C@H](C(=O)N1CCC[C@H]1C(=O)N[C@@H](CCCNC(=N)N)C(=O)N[C@H](C(=O)N[C@@H](CCC(=O)O)C(=O)N[C@@H](CO)C(=O)O)[C@@H](C)O)C(C)C)[C@@H](C)CC)C(C)C)[C@@H](C)CC [LL‐37] | – | – | Degradation after treatment with trypsin (trypsin): degraded to peptide fragments
2 | (NLysNpheNphe)2 [Peptoid 3] | > 100 | > 100 | –
3 | (NLysNpheNphe)3 [Peptoid 2] | > 100 | > 100 | –
4 | (NLysNpheNphe)4 [Peptoid 1] | > 100 | 36 ± 1 | –
5 | (NLysNspeNspe)2 [Peptoid 6] | > 100 | > 100 | –
6 | (NLysNspeNspe)3 [Peptoid 5] | > 100 | > 100 | Efficacy against C. albicans monospecies biofilm (biomass, crystal violet) [3]: amongst the most efficacious; Efficacy against S. aureus monospecies biofilm (biomass, crystal violet) [4]: amongst the most efficacious; Efficacy against E. coli monospecies biofilm (biomass, crystal violet) [5]: amongst the most efficacious; Reduction in viable cell number, C. albicans monospecies biofilm (PMA-qPCR) [6]: significant reduction in cell number; also recorded: the greatest reduction in cell number; Reduction in viable cell number, E. coli monospecies biofilm (PMA-qPCR) [7]: significant reduction in cell number; Reduction of cell numbers of S. aureus in mixed-species biofilm [8]: ~100%; Reduction in S. aureus cell number in mixed biofilm with C. albicans (PMA-qPCR) ([8]; peptoid 100 μM, n=3): better able to reduce the cell count; Toxicity to HepG2 cells (in words) (HepG2 [1]): negligible toxicity; Toxicity to HaCaT cells (in words) (HaCaT [2]): negligible toxicity
7 | (NLysNspeNspe)4 [Peptoid 4] | – | – | ED50 HaCaT (HaCaT [9]): 20 ± 1 µM; ED50 HepG2 (HepG2 [10]): 29 ± 1 µM
8 | (NaeNpheNphe)2 [Peptoid 9] | > 100 | > 100 | –
9 | (NaeNpheNphe)3 [Peptoid 8] | > 100 | > 100 | –
10 | (NaeNpheNphe)4 [Peptoid 7] | > 100 | > 100 | Efficacy against C. albicans monospecies biofilm (biomass, crystal violet) [3]: amongst the most efficacious; Efficacy against S. aureus monospecies biofilm (biomass, crystal violet) [4]: amongst the most efficacious; Efficacy against E. coli monospecies biofilm (biomass, crystal violet) [5]: amongst the most efficacious; Reduction in viable cell number, C. albicans monospecies biofilm (PMA-qPCR) [6]: significant reduction in cell number; Reduction in viable cell number, E. coli monospecies biofilm (PMA-qPCR) [7]: significant reduction in cell number; Reduction in C. albicans cell number in mixed biofilm with S. aureus (PMA-qPCR) [11]: the greatest reduction; Reduction of cell numbers of S. aureus in mixed-species biofilm [8]: ~100%; Toxicity to HepG2 cells (in words) (HepG2 [1]): negligible toxicity; Toxicity to HaCaT cells (in words) (HaCaT [2]): negligible toxicity
11 | (NaeNspeNspe)2 [Peptoid 12] | > 100 | > 100 | –
12 | (NaeNspeNspe)3 [Peptoid 11] | > 100 | > 100 | –
13 | (NaeNspeNspe)4 [Peptoid 10] | 41 ± 2 | 26 ± 2 | –
14 | (NahNpheNphe)2 [Peptoid 15] | > 100 | > 100 | –
15 | (NahNpheNphe)3 [Peptoid 14] | > 100 | > 100 | –
16 | (NahNpheNphe)4 [Peptoid 13] | > 100 | > 100 | –
17 | (NahNspeNspe)2 [Peptoid 18] | > 100 | > 100 | –
18 | (NahNspeNspe)4 [Peptoid 16] | 41 ± 1 | 23 ± 1 | –
